Data from patent publication US20250154144A1 (CHILDREN'S HOSPITAL MEDICAL CENTER, priority 2021, published 2025).

How the values were obtained:
MOLM14 D835Y cells = test: cells; assay type: cell-based; conditions: Homo sapiens, MOLM-14, 48 h, 48 hours, Cell Titer Glo; read-out: MOLM14 D835Y IC50
FLT3 D835H = molecular target: T1, FLT3 D835H (Homo sapiens, UniProt P36888, D835H); test: DiscoverX KINOMEscan competition binding, FLT3 D835H
T1 construct: purchased DiscoverX (KINOMEscan)
T1 sequence (P36888 27-993 D835H): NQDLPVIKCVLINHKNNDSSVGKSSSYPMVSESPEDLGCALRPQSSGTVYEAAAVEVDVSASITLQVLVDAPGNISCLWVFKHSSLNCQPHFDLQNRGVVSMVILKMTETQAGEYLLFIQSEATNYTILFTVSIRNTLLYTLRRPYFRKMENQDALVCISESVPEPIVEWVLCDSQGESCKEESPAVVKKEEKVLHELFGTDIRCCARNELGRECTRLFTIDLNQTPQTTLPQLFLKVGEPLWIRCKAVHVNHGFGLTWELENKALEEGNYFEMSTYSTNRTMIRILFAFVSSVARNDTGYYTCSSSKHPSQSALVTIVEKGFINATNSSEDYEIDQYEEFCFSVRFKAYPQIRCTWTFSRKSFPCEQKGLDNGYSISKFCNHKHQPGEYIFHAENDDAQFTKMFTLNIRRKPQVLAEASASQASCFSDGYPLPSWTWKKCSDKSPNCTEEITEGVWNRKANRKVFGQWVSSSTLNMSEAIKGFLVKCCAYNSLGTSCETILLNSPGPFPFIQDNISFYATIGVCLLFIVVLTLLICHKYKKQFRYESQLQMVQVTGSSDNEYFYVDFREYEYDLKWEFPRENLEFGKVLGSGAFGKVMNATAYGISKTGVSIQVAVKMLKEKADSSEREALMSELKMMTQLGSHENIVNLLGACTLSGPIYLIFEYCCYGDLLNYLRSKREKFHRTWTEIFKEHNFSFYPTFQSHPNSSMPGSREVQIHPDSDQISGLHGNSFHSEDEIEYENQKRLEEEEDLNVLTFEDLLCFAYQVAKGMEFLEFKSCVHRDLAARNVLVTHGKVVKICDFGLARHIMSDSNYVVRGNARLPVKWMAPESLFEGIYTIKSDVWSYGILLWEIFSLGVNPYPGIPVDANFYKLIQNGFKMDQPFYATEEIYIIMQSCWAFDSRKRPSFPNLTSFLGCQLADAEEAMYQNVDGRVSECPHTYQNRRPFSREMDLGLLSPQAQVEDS

MOLM14 F691L cells = test: cells; assay type: cell-based; conditions: Homo sapiens, MOLM-14, 48 h, 48 hours, Cell Titer Glo; read-out: MOLM14 F691L IC50
IRAK4 = molecular target: T2, IRAK4 (Homo sapiens, UniProt Q9NWZ3); test: RBC HotSpot Kinase Assay, IRAK4; conditions: IRAK4 IC50
T2 sequence (Q9NWZ3 1-460): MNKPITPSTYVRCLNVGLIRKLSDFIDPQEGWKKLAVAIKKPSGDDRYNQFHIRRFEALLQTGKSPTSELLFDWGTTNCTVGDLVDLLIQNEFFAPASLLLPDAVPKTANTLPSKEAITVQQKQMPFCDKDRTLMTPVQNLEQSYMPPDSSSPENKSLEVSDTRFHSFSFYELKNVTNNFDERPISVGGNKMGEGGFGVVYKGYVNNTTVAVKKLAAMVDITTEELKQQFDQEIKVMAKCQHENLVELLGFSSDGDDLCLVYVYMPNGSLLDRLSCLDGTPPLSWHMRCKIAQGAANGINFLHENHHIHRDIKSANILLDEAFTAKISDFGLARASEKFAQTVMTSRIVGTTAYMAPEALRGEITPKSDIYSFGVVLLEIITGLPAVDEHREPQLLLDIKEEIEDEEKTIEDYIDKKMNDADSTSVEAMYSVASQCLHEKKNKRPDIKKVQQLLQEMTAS

FLT3 Autoinh. = molecular target: T3, FLT3 Autoinh. (Homo sapiens, UniProt P36888); test: DiscoverX KINOMEscan competition binding, FLT3 Autoinh.
T3 construct: purchased DiscoverX (KINOMEscan)
T3 sequence (P36888 564-993 limits assumed): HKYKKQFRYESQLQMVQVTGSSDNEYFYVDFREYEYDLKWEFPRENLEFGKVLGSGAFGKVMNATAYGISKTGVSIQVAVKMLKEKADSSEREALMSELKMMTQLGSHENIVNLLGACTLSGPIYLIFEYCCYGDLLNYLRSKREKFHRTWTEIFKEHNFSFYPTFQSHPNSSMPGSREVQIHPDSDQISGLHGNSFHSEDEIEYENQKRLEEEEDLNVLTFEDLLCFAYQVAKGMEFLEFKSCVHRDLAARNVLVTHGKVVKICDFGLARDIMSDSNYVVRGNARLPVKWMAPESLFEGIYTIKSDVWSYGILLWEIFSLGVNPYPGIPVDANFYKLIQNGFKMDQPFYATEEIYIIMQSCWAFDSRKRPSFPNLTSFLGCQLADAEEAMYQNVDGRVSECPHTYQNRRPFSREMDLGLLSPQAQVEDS

Work on `CC(O)(c1cn2c(-c3ccnc(N[C@H]4CNCC[C@@H]4F)n3)cnc2cn1)C(F)(F)F` (single isomer, unassigned) [Compound 72] yielded an IC50 (MOLM14 D835Y cells) of 55 nM, a Kd (FLT3 D835H) of 1.1 nM and an IC50 (MOLM14 F691L cells) of 433 nM. The IC50 (IRAK4) was 0.7 nM and the Kd (FLT3 Autoinh.) was 25 nM.
For `F[C@H]1CCNC[C@@H]1Nc1cncc(-c2cnc3cc(OC4CC4)ccn23)n1` [Compound 12, 6-(7-cyclopropoxyimidazo[1,2-a]pyridin-3-yl)-N-((3S,4S)-4-fluoropiperidin-3-yl)pyrazin-2-amine], the IC50 (MOLM14 D835Y cells) was 34 nM, the Kd (FLT3 D835H) was 1.1 nM and the IC50 (MOLM14 F691L cells) was 86 nM. The IC50 (IRAK4) was 2 nM.
`COc1cc2ncc(-c3cncc(N[C@H]4CNC[C@@H]4F)n3)n2nc1C1CC1` [Compound 22, 6-(6-cyclopropyl-7-methoxyimidazo[1,2-b]pyridazin-3-yl)-N-((3S,4S)-4-fluoropyrrolidin-3-yl)pyrazin-2-amine] was tested, and the Kd (FLT3 D835H) was 0.87 nM, the IC50 (IRAK4) was 1 nM and the Kd (FLT3 Autoinh.) was 33 nM.
`COc1cc2ncc(-c3cncc(N[C@H]4CNCC[C@@H]4F)n3)n2nc1C1CC1` [Compound 24, 6-(6-cyclopropyl-7-methoxyimidazo[1,2-b]pyridazin-3-yl)-N-((3S,4S)-4-fluoropiperidin-3-yl)pyrazin-2-amine] showed a Kd (FLT3 D835H) of 0.33 nM, an IC50 (IRAK4) of 0.7 nM and a Kd (FLT3 Autoinh.) of 25 nM.
With `COc1cc2ncc(-c3ccnc(N[C@@H]4CCCNC4)n3)n2cc1C(C)(C)O` [Compound 44, (R)-2-(7-methoxy-3-(2-(piperidin-3-ylamino)pyrimidin-4-yl)imidazo[1,2-a]pyridin-6-yl)propan-2-ol] the IC50 (MOLM14 D835Y cells) was 11 nM, the Kd (FLT3 D835H) was 0.28 nM and the IC50 (MOLM14 F691L cells) was 86 nM. For the same compound, the IC50 (IRAK4) was < 0.5 nM and the Kd (FLT3 Autoinh.) was 2.3 nM.
Compound `COc1cc2ncc(-c3ccnc(N[C@H]4CNC[C@@H]4F)n3)n2nc1C1CC1` [Compound 49, 4-(6-cyclopropyl-7-methoxyimidazo[1,2-b]pyridazin-3-yl)-N-((3S,4S)-4-fluoropyrrolidin-3-yl)pyrimidin-2-amine] has an IC50 (MOLM14 D835Y cells) of 24 nM, a Kd (FLT3 D835H) of 0.46 nM and an IC50 (MOLM14 F691L cells) of 307 nM. It also gave an IC50 (IRAK4) of 1 nM and a Kd (FLT3 Autoinh.) of 16 nM.
For `COc1cc2ncc(-c3ccnc(N[C@@H]4CCCNC4)n3)n2nc1C1CC1` [Compound 50, (R)-4-(6-cyclopropyl-7-methoxyimidazo[1,2-b]pyridazin-3-yl)-N-(piperidin-3-yl)pyrimidin-2-amine], the IC50 (MOLM14 D835Y cells) was 17 nM, the IC50 (MOLM14 F691L cells) was 172 nM and the IC50 (IRAK4) was 4 nM.
Compound `COc1cc2ncc(-c3ccnc(N[C@H]4CNCC[C@@H]4F)n3)n2nc1C1CC1` [Compound 51, 4-(6-cyclopropyl-7-methoxyimidazo[1,2-b]pyridazin-3-yl)-N-((3S,4S)-4-fluoropiperidin-3-yl)pyrimidin-2-amine] has an IC50 (MOLM14 D835Y cells) of 6 nM, a Kd (FLT3 D835H) of 0.47 nM and an IC50 (MOLM14 F691L cells) of 122 nM. For the same compound, the IC50 (IRAK4) was 0.6 nM and the Kd (FLT3 Autoinh.) was 40 nM.
